The test system of data set [1] is patients with newly reported Acute Coronary Syndrome (ACS). Nature of the data set: Study 5: randomized controlled trial, Ticagrelor with QFM (active group) versus Ticagrelor with e-diary (control group). The data set is classed as in vivo, human. The text has this:
The study design was two different patient groups with at least eighty patients in each group. The group using the invention, hereafter called the active group, used their own mobile phones to use the QFM described above and the actual drug Ticagrelor. The other group, hereafter called the control group, used their own mobile phones with just an e-diary (control app) and the actual drug Ticagrelor.
Study design: Randomized Controlled Trial with two different patient groups
Intervention to evaluate: The invention using the above described QFM in the patients mobile phones, integrated with the actual drug
Actual used drug: Ticagrelor (Brilique)
Control: e-diary. The e-diary consisted of the following items and functionalities, enabling data for study evaluation • The questions concerning adherence to the specific drug, being able to answer whether the patient took the drug in the morning and/or in the evening, for the actual day and the day before. • A reminder through a text message if the patient missed to answer the adherence questions during one day
Patient group: Patients with newly reported Acute Coronary Syndrome (ACS).
Number of patients in total: 166
Length of using the invention: Six months
Primary objective: Assess the non-adherence to the drug according to the prescription recommendation in patients using the invention compared to patients who only use the control-app
The primary endpoint definition was according to the following: Composite endpoint of adherence failure- or treatment gap events registered by patients • Adherence failure events; • More than 14% missed doses during an observation cycle of 7 days. The first missed dose of the drug initiates an observation cycle of 1 week. If a second missed dose is registered within this week an adherence failure event is registered. The third missed dose initiates a new observation cycle, and the process restarts. • Treatment gap events; • patient reported gaps of more than 4 consecutive doses
Secondary objectives: Comparison between active group and control group concerning; • Adherence to treatment of the specific drug • Cardiovascular risk factors: • BMI • Physical activity • Blood pressure • LDL-cholesterol • Smoking cessation • Quality of life (EQ5D-VAS)
The patients with ACS was randomly selected to one of the study arms. After inclusion patients in the active group used the described QFM in relation to the actual drug during the actual period of time.

The conditions of data set [2]: source: EPAR summary for Lyrica; cited from earlier work.
Setting [3] is: Active group (QFM + Ticagrelor).
Where [4] appears, read: Control group (e-diary + Ticagrelor).

Regarding `CCCSc1nc(N[C@@H]2C[C@H]2c2ccc(F)c(F)c2)c2nnn([C@@H]3C[C@H](OCCO)[C@@H](O)[C@H]3O)c2n1` [Ticagrelor, ticagrelor], in data set [1] (setting [3]), the LDL change was −1.8, the Physical activity improvements was 50%, the “Quality of life (EQ5D-VAS) change” value was “+14.7” and the Smoking cessation was −80%. In data set [1] (setting [4]), the LDL change is reported as −1.0, the Physical activity improvements is reported as 32%, the “Quality of life (EQ5D-VAS) change” value is recorded as “+8.4” and the Smoking cessation is on record as −45%. Also, the “BMI; average decrease in weight” value in data set [1] (Patients having a BMI >30, group not stated) is recorded as 5%. Also, the “patient deaths during the usage of the invention” value in data set [1] (six months) is “No patients in the study died”.
In the case of `CC(C)C[C@H](CN)CC(=O)O` [A, pregabalin], in data set [2], the “Common side-effects which may affect more than 1 person in 100 (among others)” value is given as “dry mouth, nausea” and the “Very common side-effects which may affect more than 1 person in 10” value is “dizziness, tiredness”.

These data come from patent US10624894B2, “Pharmaceutical product and communication tool” (ScientificMed Sweden AB, priority 2011, dated 2020).
